Measurements: PubChem BioAssay (NCI)
Values joined by “and” are separate entries in the source; they are usually repeats but may differ in a detail not shown here. Equal values may be shown once.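 Tested at 5 concentrations; 48 h exposure; 96-well plates; endpoints linearly interpolated, else capped at highest concentration. The concentration for 50% growth inhibition is given as GI50. At the TGI there is no net growth.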

How the values were obtained:
Test in all cases: NCI anticancer screen, dose series, 48 h
UACC-257 melanoma = system: UACC-257 melanoma
U251 CNS = system: U251 CNS
UACC-62 melanoma = system: UACC-62 melanoma
MDA-N = system: MDA-N
HT29 colon = system: HT29 colon
HS 578T breast = system: HS 578T breast
RXF 393 renal = system: RXF 393 renal
NCI-H23 lung = system: NCI-H23 lung
MOLT-4 leukemia = system: MOLT-4 leukemia
PC-3 prostate = system: PC-3 prostate
MDA-MB-231 breast = system: MDA-MB-231 breast
BT-549 breast = system: BT-549 breast
DU-145 prostate = system: DU-145 prostate
T-47D breast = system: T-47D breast
SF-295 CNS = system: SF-295 CNS
HL-60(TB) leukemia = system: HL-60(TB) leukemia
HOP-92 NSCLC = system: HOP-92 NSCLC
SR leukemia = system: SR leukemia
CCRF-CEM leukemia = system: CCRF-CEM leukemia

SMILES	TGI (UACC-257 melanoma) [µM]	TGI (U251 CNS) [µM]	TGI (UACC-62 melanoma) [µM]	TGI (MDA-N) [µM]	TGI (HT29 colon) [µM]	TGI (HS 578T breast) [µM]	TGI (RXF 393 renal) [µM]	TGI (NCI-H23 lung) [µM]	TGI (MOLT-4 leukemia) [µM]	TGI (PC-3 prostate) [µM]	TGI (MDA-MB-231 breast) [µM]	TGI (BT-549 breast) [µM]	TGI (DU-145 prostate) [µM]	TGI (T-47D breast) [µM]	TGI (SF-295 CNS) [µM]	TGI (HL-60(TB) leukemia) [µM]	TGI (HOP-92 NSCLC) [µM]	TGI (SR leukemia) [µM]	TGI (CCRF-CEM leukemia) [µM]	GI50 (RXF 393 renal)
CCOC(=O)Nc1n[nH]nc1Cl	> 100	> 100	> 100	> 100	> 100	> 100	> 100	> 100	> 100	> 100	> 100	> 100	> 100	> 100						
C=CC(OC(=O)C(C)C)c1ccc(OC(=O)C(C)C)cc1 (stereo not given)	27.9	15.3	31	25.9	26.3	> 100		51.4	49.7	21.9	35.5	31.2	> 100	69.8	29.1	21	31.4	> 100	10.7	
CCCCCCCCCCCCCCCC(=O)Nc1ccn(C2CCC(COP(=O)(O)OCC3OC(n4cc(F)c(=O)[nH]c4=O)CC3OC(C)=O)O2)c(=O)n1 (stereo not given)	53.6	36.3	61.6	50.4	32.4	> 100	> 100	47.9	30.4	56.8	> 61.6	58.4	> 100	> 66.5	29.6	27.9	66.3		19.7	
COc1cc2cc3c4cc(OC)c(OC)cc4cc[n+]3c(C)c2cc1OC	> 100	> 100	98.6	> 100	> 100	> 100		> 100	> 100	> 100	> 100	> 100	> 100	> 100	> 100	> 100	> 100		> 100	
CC(=O)OCC1OC(OC(C)=O)C(Nc2ncc(-c3ccc(C)cc3)s2)C(OC(C)=O)C1OC(C)=O (stereo not given)	49.1	31.6	29	35.3	56.1	69.5	29.6	31.9	49.2	45.3	49.8	36.7	> 100	48.8	76.3			> 100	55	
C=C1CC(C)(COc2cc(=O)oc3ccccc23)OC1=O (stereo not given)	6.1	28.9	8.65	16.3	13.3	30.8		11.4	7.15	17.5	23.1	7.89	19	13.8	30.6	4.83	3.54	11.2	5.08	
O=c1nc2c(c(-c3ccc(F)cc3)[nH]1)COC/C2=C\c1ccc(F)cc1	> 100	> 100	> 100	> 100		> 100	> 100	> 100	> 100	> 100	> 100	> 100	> 100	> 100	> 100		> 100	> 100	> 100	
CCOC(=O)C1=CNC(C(=O)OCC)C1c1cccn1-c1ccccc1 (stereo not given)	> 100	> 100	> 100	57.4	50.5	> 100	69	> 100	47.3	71.3	40.1	> 100	> 100	> 100	74.5		56.8	55.3	77	
Cc1c(-c2nc(N)c(C#N)c(N)c2C#N)c(=O)oc2ccccc12	> 100	> 100	> 100	> 100	> 100	> 100	> 100	> 100		> 100	> 100	> 100	> 100	> 100	> 100	> 100	> 100		> 100	
O=C(/C=C/c1ccc(O)c(O)c1)NC(COC(=O)/C=C/c1ccc(O)c(O)c1)C(=O)O (stereo not given)	> 100	> 100	> 100	> 100	> 100	> 100	> 100	> 100	> 100	> 100	> 100	> 100	> 100	> 100	> 100		> 100	> 100	> 100	
Cc1ccc(SCC(CF)OC(C)n2cnc3c(Cl)nc(N)nc32)cc1 (stereo not given)	> 100	> 100	> 100	> 100	> 100	> 100		> 100	> 100	> 100	> 100	> 100	> 100	> 100	> 100	86.3	> 100	> 100	> 100	
[N-]=[N+]=CC(=O)OCC1NC(=O)C(COC(=O)C=[N+]=[N-])NC1=O (stereo not given)	> 100	> 100	> 100	> 100	> 100	> 100	> 100	> 100	> 100	> 100	> 100		> 100	> 100	> 100	> 100	> 100	> 100	> 100	15.8 µM and > 100 µM
COc1ccc(NS(=O)c2c(C)cc(C)cc2C)cc1 (stereo not given)	> 100	> 100	> 100	> 100	> 100	> 100		> 100	> 100		> 100	> 100	> 100	> 100	> 100	> 100		> 100	> 100	
